Structures can show the parent of a compound that is named as a salt.
How the values were obtained:
Type in all cases: biochemical
[1] = biological target: T1, Plasmodium falciparum serine hydroxymethyltransferase (PfSHMT) (Plasmodium falciparum, UniProt Q8I566); experiment: MTHFD-coupled enzyme assay at a single concentration; settings: read-out: % inhibition at 100 μM
T1 sequence (Q8I566 1-442): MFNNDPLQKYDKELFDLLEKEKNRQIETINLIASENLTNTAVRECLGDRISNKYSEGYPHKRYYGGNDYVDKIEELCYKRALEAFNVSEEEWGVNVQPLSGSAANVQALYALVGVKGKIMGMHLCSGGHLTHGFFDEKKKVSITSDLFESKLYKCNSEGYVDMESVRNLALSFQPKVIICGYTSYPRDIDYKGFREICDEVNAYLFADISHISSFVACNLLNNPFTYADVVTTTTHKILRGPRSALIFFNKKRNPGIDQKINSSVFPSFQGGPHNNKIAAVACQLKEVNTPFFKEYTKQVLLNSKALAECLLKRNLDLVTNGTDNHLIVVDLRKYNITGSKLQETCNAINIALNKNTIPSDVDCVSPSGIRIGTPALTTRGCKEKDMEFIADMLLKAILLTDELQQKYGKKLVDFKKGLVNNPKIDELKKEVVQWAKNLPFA

[2] = biological target: T1, Plasmodium falciparum serine hydroxymethyltransferase (PfSHMT)
[3] = biological target: T1, Plasmodium falciparum serine hydroxymethyltransferase (PfSHMT); experiment: MTHFD-coupled enzyme assay, […], […] to […] h incubation; settings: read-out: % inhibition at 100 μM

Row | Structure (SMILES) | inhibition at 100 µM [1] | also measured
1 | CC(C)[C@@]1(NC(=O)[C@@H]2C[C@@H]3c4cccc5[nH]cc(c45)C[C@H]3N(C)C2)O[C@@]2(O)[C@@H]3CCCN3C(=O)[C@H](Cc3ccccc3)N2C1=O [dihydroergocristine mesylate] | 20 to 50% | 
2 | C[C@@H]1[C@H](O)[C@@H](C)/C=C/C=C/C=C/C=C/C=C/C=C/C=C/[C@H](O[C@@H]2O[C@H](C)[C@@H](O)[C@H](N)[C@@H]2O)C[C@@H]2O[C@](O)(C[C@@H](O)C[C@@H](O)[C@H](O)CC[C@@H](O)C[C@@H](O)CC(=O)O[C@H]1C)C[C@H](O)[C@H]2C(=O)O [amphotericin B] |  | IC50 [2]: 106 ± 1 µM
3 | CO[C@H]1/C=C/O[C@@]2(C)Oc3c(C)c(O)c4c(c3C2=O)C2=NC3(CCN(CC(C)C)CC3)NC2=C(NC(=O)/C(C)=C\C=C\[C@H](C)[C@H](O)[C@@H](C)[C@@H](O)[C@@H](C)[C@H](OC(C)=O)[C@@H]1C)C4=O [rifabutin] | 20 to 50% | 
4 | CO[C@H]1/C=C/O[C@@]2(C)Oc3c(C)c(O)c4c(O)c(c5c(nc6cc(C)ccn65)c4c3C2=O)NC(=O)/C(C)=C\C=C\[C@H](C)[C@H](O)[C@@H](C)[C@@H](O)[C@@H](C)[C@H](OC(C)=O)[C@@H]1C [rifaximin] |  | inhibition at 100 µM [3]: ~60%
